ChEMBL document CHEMBL5653631, “A Potent and Selective ULK1 Inhibitor Suppresses Autophagy and Sensitizes Cancer Cells to Nutrient Stress” (iScience, 2018)
Each block holds one molecule with its values, some of them ahead of it.

Assays:
[1] = target: Aurora kinase B (Homo sapiens) (UniProt Q96GD4); experiment: Inhibition of human recombinant AurB at 500 nM related to control ULK1
[2] = target: Dual specificity protein kinase CLK4 (Homo sapiens) (UniProt Q9HAZ1); experiment: Inhibition of human recombinant CLK4 at 500 nM related to control ULK1
[3] = target: T1, Serine/threonine-protein kinase tousled-like 1 (Homo sapiens) (UniProt Q9UKI8); experiment: Inhibition of human recombinant TLK1 at 500 nM related to control ULK1
T1 sequence (whole entry): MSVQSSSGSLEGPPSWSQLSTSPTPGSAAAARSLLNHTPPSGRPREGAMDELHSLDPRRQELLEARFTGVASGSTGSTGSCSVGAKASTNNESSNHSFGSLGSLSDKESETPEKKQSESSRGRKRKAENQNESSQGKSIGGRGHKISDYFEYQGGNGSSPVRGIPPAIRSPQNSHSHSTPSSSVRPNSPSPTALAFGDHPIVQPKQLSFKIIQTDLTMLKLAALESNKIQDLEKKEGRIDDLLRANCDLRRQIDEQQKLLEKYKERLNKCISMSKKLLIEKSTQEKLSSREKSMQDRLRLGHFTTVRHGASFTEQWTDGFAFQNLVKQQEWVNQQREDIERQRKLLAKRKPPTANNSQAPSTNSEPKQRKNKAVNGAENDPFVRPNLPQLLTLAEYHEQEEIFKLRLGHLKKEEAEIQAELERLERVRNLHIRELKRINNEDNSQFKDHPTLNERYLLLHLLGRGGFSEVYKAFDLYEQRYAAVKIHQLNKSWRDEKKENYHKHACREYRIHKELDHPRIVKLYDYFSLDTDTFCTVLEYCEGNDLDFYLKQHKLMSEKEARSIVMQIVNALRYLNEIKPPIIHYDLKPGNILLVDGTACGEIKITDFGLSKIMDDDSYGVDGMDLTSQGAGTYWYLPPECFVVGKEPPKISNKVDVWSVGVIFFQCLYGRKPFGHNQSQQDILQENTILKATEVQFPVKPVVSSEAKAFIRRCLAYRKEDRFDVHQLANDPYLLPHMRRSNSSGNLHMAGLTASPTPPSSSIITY

[4] = target: T2, MAP/microtubule affinity-regulating kinase 4 (Homo sapiens) (UniProt Q96L34); experiment: Inhibition of human recombinant MARK4 at 500 nM related to control ULK1
T2 sequence (whole entry): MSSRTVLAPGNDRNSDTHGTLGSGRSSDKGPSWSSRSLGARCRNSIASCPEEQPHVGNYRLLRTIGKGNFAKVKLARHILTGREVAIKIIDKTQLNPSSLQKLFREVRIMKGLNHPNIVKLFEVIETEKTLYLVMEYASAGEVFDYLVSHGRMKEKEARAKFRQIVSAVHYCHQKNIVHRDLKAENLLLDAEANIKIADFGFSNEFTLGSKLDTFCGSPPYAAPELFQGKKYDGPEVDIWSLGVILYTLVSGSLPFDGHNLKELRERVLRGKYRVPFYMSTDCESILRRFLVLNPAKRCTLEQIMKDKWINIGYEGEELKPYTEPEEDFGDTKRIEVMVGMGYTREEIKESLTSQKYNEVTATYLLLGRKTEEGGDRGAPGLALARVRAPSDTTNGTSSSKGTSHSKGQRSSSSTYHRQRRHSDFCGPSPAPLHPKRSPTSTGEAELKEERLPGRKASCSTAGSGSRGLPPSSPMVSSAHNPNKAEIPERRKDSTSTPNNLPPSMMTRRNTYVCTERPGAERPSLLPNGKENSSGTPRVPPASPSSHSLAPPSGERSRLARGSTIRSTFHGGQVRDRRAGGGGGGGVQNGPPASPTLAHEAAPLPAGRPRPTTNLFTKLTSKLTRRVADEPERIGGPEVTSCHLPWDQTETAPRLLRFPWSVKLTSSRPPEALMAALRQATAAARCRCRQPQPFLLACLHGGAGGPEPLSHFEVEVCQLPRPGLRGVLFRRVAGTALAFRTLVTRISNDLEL

[5] = target: T3, SNF-related serine/threonine-protein kinase (Homo sapiens) (UniProt Q9NRH2); experiment: Inhibition of human recombinant SNRK at 500 nM in presence of ATP by radiometric assay relative to control
T3 sequence (whole entry): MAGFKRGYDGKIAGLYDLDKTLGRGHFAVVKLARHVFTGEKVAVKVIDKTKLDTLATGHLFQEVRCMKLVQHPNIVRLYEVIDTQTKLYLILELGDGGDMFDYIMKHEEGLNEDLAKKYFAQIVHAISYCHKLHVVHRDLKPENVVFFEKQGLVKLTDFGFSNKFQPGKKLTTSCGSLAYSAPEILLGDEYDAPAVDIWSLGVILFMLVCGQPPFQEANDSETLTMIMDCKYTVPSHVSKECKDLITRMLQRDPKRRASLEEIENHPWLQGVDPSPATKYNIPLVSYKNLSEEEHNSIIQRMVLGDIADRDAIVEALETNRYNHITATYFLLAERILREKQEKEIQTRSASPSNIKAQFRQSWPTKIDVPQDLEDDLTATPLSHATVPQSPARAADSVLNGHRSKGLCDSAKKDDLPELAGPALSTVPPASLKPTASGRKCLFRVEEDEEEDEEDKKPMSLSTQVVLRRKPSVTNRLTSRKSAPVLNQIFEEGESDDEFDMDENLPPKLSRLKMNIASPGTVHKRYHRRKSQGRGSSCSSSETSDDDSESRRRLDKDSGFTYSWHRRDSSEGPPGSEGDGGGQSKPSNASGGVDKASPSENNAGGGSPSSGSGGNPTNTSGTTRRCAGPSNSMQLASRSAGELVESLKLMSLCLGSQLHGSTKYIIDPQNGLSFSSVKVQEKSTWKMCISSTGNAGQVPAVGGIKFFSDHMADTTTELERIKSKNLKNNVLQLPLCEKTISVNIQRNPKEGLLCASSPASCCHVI

[6] = target: Macrophage colony-stimulating factor 1 receptor (Homo sapiens) (UniProt P07333); experiment: Inhibition of human recombinant FMS at 15 nM related to control ULK1
Chain of Macrophage colony-stimulating factor 1 receptor (Homo sapiens) (P07333 whole entry): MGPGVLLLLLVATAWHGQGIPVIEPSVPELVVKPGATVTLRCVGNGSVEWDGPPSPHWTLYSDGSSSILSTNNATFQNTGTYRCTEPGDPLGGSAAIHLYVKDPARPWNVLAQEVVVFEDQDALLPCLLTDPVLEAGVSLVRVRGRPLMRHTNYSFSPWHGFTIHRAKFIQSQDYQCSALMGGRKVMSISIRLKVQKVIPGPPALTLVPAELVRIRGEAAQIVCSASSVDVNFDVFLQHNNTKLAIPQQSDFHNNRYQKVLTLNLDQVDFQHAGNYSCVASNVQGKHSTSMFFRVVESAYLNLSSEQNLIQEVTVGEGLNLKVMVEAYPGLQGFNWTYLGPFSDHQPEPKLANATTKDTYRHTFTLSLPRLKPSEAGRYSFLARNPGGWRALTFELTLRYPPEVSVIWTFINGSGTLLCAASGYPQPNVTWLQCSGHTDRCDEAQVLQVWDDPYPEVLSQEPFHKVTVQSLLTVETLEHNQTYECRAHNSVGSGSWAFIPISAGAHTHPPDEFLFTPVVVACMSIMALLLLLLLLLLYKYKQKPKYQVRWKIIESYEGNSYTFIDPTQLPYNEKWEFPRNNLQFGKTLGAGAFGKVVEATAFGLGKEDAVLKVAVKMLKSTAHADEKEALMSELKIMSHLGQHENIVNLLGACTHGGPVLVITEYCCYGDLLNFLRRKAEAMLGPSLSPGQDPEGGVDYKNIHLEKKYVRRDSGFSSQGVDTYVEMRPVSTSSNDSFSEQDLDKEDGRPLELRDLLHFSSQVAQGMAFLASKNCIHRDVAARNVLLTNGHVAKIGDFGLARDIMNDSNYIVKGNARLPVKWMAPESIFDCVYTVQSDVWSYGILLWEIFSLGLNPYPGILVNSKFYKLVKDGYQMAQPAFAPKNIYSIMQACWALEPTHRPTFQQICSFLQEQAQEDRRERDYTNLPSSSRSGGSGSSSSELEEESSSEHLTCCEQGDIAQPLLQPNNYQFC

[7] = target: Interleukin-1 receptor-associated kinase 1 (Homo sapiens) (UniProt P51617); experiment: Inhibition of human recombinant IRAK1 at 40 nM related to control ULK1
Chain of Interleukin-1 receptor-associated kinase 1 (Homo sapiens) (P51617 whole entry, looked up): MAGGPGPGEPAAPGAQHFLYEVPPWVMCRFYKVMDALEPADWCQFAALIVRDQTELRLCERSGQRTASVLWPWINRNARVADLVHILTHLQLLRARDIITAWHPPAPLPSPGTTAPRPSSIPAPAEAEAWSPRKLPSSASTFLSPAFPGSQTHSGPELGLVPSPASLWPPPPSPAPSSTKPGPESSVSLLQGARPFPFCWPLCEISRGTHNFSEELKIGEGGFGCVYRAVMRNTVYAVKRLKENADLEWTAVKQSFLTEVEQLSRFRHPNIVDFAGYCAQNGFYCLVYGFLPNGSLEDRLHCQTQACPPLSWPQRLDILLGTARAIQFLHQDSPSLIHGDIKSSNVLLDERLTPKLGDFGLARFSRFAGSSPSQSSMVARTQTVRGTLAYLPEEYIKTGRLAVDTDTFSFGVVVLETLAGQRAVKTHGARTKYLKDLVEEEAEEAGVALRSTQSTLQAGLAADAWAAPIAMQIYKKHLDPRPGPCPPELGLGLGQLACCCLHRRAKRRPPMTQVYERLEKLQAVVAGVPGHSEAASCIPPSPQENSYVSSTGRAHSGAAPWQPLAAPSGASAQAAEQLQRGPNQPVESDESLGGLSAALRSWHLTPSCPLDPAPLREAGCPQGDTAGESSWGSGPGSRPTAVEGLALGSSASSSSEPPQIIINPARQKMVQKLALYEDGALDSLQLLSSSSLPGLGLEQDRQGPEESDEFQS

[8] = target: Serine/threonine-protein kinase SIK1 (Homo sapiens) (UniProt P57059); experiment: Inhibition of human recombinant SIK at 40 nM in presence of ATP by radiometric assay relative to control
Chain of Serine/threonine-protein kinase SIK1 (Homo sapiens) (P57059 whole entry): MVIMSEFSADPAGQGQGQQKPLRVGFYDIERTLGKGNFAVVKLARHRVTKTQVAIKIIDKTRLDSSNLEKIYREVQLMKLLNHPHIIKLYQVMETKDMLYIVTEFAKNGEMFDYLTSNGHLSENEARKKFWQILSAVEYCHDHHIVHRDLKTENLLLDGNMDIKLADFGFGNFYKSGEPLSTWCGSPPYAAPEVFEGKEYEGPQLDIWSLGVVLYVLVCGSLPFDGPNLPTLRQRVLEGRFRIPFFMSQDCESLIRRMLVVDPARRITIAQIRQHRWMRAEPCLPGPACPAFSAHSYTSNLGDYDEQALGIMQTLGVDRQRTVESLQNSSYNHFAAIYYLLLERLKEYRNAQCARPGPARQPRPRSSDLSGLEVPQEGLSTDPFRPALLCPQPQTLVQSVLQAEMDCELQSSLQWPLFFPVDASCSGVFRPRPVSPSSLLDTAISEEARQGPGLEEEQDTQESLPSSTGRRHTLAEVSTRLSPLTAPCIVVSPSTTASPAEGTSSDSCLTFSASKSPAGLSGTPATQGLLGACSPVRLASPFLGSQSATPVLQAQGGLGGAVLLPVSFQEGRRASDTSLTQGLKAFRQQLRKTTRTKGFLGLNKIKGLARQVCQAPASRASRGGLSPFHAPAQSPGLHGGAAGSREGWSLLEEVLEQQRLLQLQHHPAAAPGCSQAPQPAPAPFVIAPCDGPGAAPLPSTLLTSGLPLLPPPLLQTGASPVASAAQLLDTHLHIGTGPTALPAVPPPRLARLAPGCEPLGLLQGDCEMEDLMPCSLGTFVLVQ

[9] = target: Serine/threonine-protein kinase Nek7 (Homo sapiens) (UniProt Q8TDX7); experiment: Inhibition of human recombinant NEK7 at 40 nM related to control ULK1
Chain of Serine/threonine-protein kinase Nek7 (Homo sapiens) (Q8TDX7 whole entry, looked up): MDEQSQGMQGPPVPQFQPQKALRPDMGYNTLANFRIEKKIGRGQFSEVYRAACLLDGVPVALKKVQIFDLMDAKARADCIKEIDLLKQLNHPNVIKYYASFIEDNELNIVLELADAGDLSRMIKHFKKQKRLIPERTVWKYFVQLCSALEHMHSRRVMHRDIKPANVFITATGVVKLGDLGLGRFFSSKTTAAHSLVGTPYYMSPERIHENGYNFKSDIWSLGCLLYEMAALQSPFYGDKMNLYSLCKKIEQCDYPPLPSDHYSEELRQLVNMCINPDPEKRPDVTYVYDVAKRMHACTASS

[10] = target: Cyclin-dependent kinase 6 (Homo sapiens) (UniProt Q00534); experiment: Inhibition of human recombinant CDK6 at 40 nM in presence of ATP by radiometric assay relative to control
Chain of Cyclin-dependent kinase 6 (Homo sapiens) (Q00534 whole entry): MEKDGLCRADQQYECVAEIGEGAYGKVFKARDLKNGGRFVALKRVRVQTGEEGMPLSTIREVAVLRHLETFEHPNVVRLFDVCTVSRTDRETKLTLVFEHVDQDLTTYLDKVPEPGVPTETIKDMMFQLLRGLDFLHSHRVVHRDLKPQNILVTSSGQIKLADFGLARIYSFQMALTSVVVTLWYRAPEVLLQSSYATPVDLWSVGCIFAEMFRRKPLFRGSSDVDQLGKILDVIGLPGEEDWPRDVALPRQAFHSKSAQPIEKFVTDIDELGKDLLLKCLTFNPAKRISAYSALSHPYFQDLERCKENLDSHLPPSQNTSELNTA

[11] = target: Serine/threonine-protein kinase tousled-like 2 (Homo sapiens) (UniProt Q86UE8); experiment: Inhibition of human recombinant TLK2 at 40 nM in presence of ATP by radiometric assay relative to control
Chain of Serine/threonine-protein kinase tousled-like 2 (Homo sapiens) (Q86UE8 whole entry, looked up): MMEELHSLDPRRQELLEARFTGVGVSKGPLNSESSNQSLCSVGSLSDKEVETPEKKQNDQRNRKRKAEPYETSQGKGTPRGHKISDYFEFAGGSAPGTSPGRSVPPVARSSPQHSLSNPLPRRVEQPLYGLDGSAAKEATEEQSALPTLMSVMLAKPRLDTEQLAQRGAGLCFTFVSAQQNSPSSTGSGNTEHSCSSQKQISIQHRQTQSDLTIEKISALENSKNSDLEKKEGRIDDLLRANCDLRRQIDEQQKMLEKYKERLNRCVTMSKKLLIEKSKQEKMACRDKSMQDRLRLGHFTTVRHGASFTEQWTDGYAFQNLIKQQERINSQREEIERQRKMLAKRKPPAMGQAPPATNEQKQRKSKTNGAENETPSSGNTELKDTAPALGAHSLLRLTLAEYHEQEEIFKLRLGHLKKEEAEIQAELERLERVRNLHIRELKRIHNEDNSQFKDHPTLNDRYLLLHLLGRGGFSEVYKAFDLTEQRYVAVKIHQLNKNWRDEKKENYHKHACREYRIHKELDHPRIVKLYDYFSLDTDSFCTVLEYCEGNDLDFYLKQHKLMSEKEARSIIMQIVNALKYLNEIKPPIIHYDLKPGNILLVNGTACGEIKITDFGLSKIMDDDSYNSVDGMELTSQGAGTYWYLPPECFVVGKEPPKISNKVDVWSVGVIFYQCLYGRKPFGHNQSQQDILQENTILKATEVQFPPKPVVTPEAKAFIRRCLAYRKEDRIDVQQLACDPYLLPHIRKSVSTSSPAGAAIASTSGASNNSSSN

[12] = target: Ribosomal protein S6 kinase alpha-3 (Homo sapiens) (UniProt P51812); experiment: Inhibition of human recombinant RSK2 at 40 nM related to control ULK1
Chain of Ribosomal protein S6 kinase alpha-3 (Homo sapiens) (P51812 whole entry): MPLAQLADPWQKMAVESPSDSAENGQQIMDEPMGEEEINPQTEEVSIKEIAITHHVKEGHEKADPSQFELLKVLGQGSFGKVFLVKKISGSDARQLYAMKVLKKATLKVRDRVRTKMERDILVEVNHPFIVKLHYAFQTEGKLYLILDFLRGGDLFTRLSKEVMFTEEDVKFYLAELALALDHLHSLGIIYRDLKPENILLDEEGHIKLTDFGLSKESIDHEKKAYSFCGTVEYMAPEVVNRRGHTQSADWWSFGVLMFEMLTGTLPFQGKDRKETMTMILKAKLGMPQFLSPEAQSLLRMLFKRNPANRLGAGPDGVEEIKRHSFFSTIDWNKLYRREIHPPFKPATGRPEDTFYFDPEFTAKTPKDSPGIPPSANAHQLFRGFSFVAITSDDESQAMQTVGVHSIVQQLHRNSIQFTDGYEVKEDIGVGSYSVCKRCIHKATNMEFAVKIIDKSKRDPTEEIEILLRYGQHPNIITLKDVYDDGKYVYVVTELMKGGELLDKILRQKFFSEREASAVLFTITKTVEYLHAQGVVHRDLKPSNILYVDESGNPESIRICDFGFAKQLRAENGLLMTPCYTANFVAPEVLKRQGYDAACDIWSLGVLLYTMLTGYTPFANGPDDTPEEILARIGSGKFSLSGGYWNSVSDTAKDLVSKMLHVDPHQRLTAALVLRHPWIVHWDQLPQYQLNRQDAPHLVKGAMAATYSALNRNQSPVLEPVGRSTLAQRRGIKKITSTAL

Chain of Aurora kinase B (Homo sapiens) (Q96GD4 whole entry): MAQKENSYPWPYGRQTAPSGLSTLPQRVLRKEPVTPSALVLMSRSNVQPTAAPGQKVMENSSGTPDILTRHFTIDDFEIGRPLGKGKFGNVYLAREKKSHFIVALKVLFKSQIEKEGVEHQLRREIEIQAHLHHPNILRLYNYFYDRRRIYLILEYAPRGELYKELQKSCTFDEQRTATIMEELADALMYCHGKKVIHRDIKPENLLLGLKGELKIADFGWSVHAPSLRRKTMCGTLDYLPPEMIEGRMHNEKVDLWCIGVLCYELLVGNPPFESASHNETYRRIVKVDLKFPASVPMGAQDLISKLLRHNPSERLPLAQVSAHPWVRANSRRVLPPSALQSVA

fold change (FC) [1]: 1.24
fold change (FC) [2]: 0.11
fold change (FC) [3]: 0
fold change (FC) [4]: 0.78
inhibition [5]: 0%
Compound: CNC(=O)c1ccccc1Oc1nc(Nc2cc(OC)c(OC)c(OC)c2)ncc1Br

fold change (FC) [6]: 0.19
Compound: CC(C)[C@H](NC(=O)c1cc(-c2cnn3cc(-c4ccc(OCCN5CCCCC5)cc4)cnc23)cs1)C(F)(F)F

fold change (FC) [7]: 0.1
inhibition [8]: 20%
fold change (FC) [9]: 0
inhibition [10]: 3%
inhibition [11]: 0%
fold change (FC) [12]: 0
Compound: O=C(N[C@@H](C1CC1)C(F)(F)F)c1cc(-c2cnn3cc(-c4ccc(F)cc4)cnc23)cs1
